{
  "source": "patent US20110251219A1",
  "about": "“TREATMENT FOR GLOMERULONEPHRITIS WITH 2-[4-(7-ETHYL-5H-PYRROLO[2,3-B]PYRAZIN-6-YL)PHENYL]PROPAN-2-OL” (SANOFI, priority 2008, published 2011)",
  "key": {"[1]": {"test_system": "glomerulonephritis induced by a 30 microgram intravenous injection of clone a84 (IgG2a)", "assay": "a84 antibody-induced glomerulonephritis animal model, urinary protein levels", "type": "in vivo, Rat, WKY", "conditions": "for % Inhibition of Total Urinary Protein Levels (mg), individual animal / % Inhibition of Total Urinary Protein Levels (mg), Mean: 30 ug a84 antibody iv; for % Inhibition of Total Urinary Protein Levels (mg), Mean: urine day 6-7 (16 h), male WKY rats, group mean", "source_text": "Study Objective: Glomerulonephritis is a complex disease involving cytokines, cell infiltration, cell proliferation, and rapid deterioration of renal function. This animal model will provide a relatively short term and quantitative measurement of glomerulonephritis. This study was designed to determine if a compound of Formula I will reduce glomerulonephritis induced by a 30 microgram intravenous injection of clone a84 (IgG2a). This monoclonal antibody induces disease by binding to a glomerular basement membrane protein. Disease progression is monitored in two ways in this model. First, the levels of protein in excreted urine are assessed. This readout serves as a rapid marker of renal diseased. The second mechanism by which disease is monitored is by examining the substructure of the kidney via histological examination.\nAim of Study: Glomerulonephritis is a complex disease involving cytokines, cell infiltration, cell proliferation, and rapid deterioration of renal function. This animal model provided a relatively short term and quantitative measurement of glomerulonephritis. This study was designed to determine if the compound of Formula I as hydrochloride salt will reduce glomerulonephritis induced by a 30 microgram intravenous injection of clone a84 (IgG2a).\nSpecies, Strain, Supplier: Rat, WKY, Charles River\nDuration and Frequency of Treatment: Animals in groups B through F and H through L received a 30 ug iv injection of a84 antibody on day 0 approximately 1 hour post dose.\nRoute of Administration: Oral gavage\nDuration and Frequency of Treatment: Each animal in groups C, D, and E received an A.M. and P.M. dose approximately 8 hours apart from day 0 through day 6. Each animal in groups I, J, and K received an A.M. and P.M. dose approximately 8 hours apart from day 0 through day 3. Dosing was initiated on day 0 approximately 1 hour prior to a84 antibody injection.\nRoute of Administration: intraperitoneal (ip)\nDuration and Frequency of Treatment: Each animal in groups F and L received an A.M. dose on day 0 approximately 1 hour prior to a84 antibody injection and a PM dose on day 3.\nKit: Rat Urinary Protein Assay Kit\nStudy Parameters Rat urinary proteins was measured over approximately a 16 hour period from day 6 to day 7. The kidneys were harvested for histological evaluation and for possible mRNA isolation.\nEvaluation Method: Rat urinary protein levels was determined by the kit described in section 2.3.\nChronology of Examinations and/or Sampling: 1) Rats were placed into six groups of eight, six groups of 4, and one group of 3 based on compound and dose administered: Group A Vehicle (0.5% methyl cellulose containing 0.2% tween 80)+IV saline injection n=8, Group B Vehicle (0.5% methyl cellulose containing 0.2% tween 80)+IV a84 antibody injection n=8, Group C Compound of Formula I as hydrochloride salt 3.0 mg/kg+IV a84 antibody injection n=8, Group D SAR397769A 10 mg/kg+IV a84 antibody injection n=8, Group E Compound of Formula I as hydrochloride salt 30 mg/kg+IV a84 antibody injection n=8, Group F Enbrel 5.0 mg/kg+IV a84 antibody injection, Group G Vehicle (0.5% methyl cellulose containing 0.2% tween 80)+IV saline injection n=4, Group H Vehicle (0.5% methyl cellulose containing 0.2% tween 80)+IV a84 antibody injection n=4, Group I Compound of Formula I as hydrochloride salt 3.0 mg/kg+IV a84 antibody injection n=4, Group J SAR397769A 10 mg/kg+IV a84 antibody injection n=4, Group K Compound of Formula I as hydrochloride salt 30 mg/kg+IV a84 antibody injection n=4, Group L Enbrel 5.0 mg/kg+IV a84 antibody injection n=4, and Group M Naïve n=3. 2) On day 0, rats were dosed one hour prior to a84 antibody injection. Animals in groups A through E, and G through K were dosed orally. Dosing continued twice daily in groups A through E from day 0 to day 6 with approximately 8 hours between doses. Dosing continued twice daily in groups G through K from day 0 to day 3 with approximately 8 hours between doses. […]"}, "Syk kinase": {"biological_target": "Syk kinase (Homo sapiens, UniProt P43405)", "conditions": "as described in WO2008/033798; cited from earlier work"}},
  "note": "“And” between values parts separate entries of the source, which are not always exact repeats. Equal entries are not always repeated.",
  "data": [
    {"molecule": "CCc1c(-c2ccc(C(C)(C)O)cc2)[nH]c2nccnc12", "note": "[Exp Cmpd, 2-[4-(7-Ethyl-5H-pyrrolo [2,3-b]pyrazin-6-yl)-phenyl]-propan-2-ol]", "values": [
      {"measurement": "% Inhibition of Total Urinary Protein Levels (mg), individual animal", "setting": "[1]; 3.0 mg/kg oral gavage twice daily day 0-6, single animals 1-8", "result": "−0.60% and 9.50% and −5.97% and 54.11% and 43.80% and 42.33% and 65.58% and −3.63%"},
      {"measurement": "% Inhibition of Total Urinary Protein Levels (mg), Mean", "setting": "[1]; 3.0 mg/kg oral gavage twice daily day 0-6", "result": 25.64, "unit": "%"},
      {"measurement": "% Inhibition of Total Urinary Protein Levels (mg), Mean", "setting": "[1]; 3.0 mg/kg oral gavage twice daily day 0-6, listed as compound of Formula I", "result": 25, "unit": "%"},
      {"measurement": "% Inhibition of Total Urinary Protein Levels (mg), individual animal", "setting": "[1]; 10 mg/kg oral gavage twice daily day 0-6, single animals 1-8", "result": "46.17% and 64.93% and 71.77% and 76.96% and 81.22% and 43.56% and 35.61% and 11.63%"},
      {"measurement": "% Inhibition of Total Urinary Protein Levels (mg), Mean", "setting": "[1]; 10 mg/kg oral gavage twice daily day 0-6", "result": 53.98, "unit": "%"},
      {"measurement": "% Inhibition of Total Urinary Protein Levels (mg), Mean", "setting": "[1]; 10 mg/kg oral gavage twice daily day 0-6, listed as compound of Formula I", "result": 53, "unit": "%"},
      {"measurement": "% Inhibition of Total Urinary Protein Levels (mg), individual animal", "setting": "[1]; 30 mg/kg oral gavage twice daily day 0-6, single animals 1-8", "result": "84.66% and 85.65% and 79.73% and 86.92% and 88.28% and 84.82% and 81.26% and 92.32%"},
      {"measurement": "% Inhibition of Total Urinary Protein Levels (mg), Mean", "setting": "[1]; 30 mg/kg oral gavage twice daily day 0-6", "result": 85.46, "unit": "%"},
      {"measurement": "% Inhibition of Total Urinary Protein Levels (mg), Mean", "setting": "[1]; 30 mg/kg oral gavage twice daily day 0-6, listed as compound of Formula I", "result": 85, "unit": "%"},
      {"measurement": "reduction of urinary protein levels compared with positive control (Enbrel)", "setting": "[1]; 30 mg/kg versus Enbrel 5.0 mg/kg", "result": "significantly better than the positive control"},
      {"measurement": "Syk kinase inhibition", "setting": "Syk kinase", "result": "Syk kinase inhibitor"}
    ]},
    {"molecule": "Enbrel [reference compound]", "values": [
      {"measurement": "% Inhibition of Total Urinary Protein Levels (mg), individual animal", "setting": "[1]; 5.0 mg/kg ip on day 0 and day 3, single animals 1-7", "result": "50.26% and 33.67% and 61.10% and 46.54% and 58.91% and 63.92% and 22.67%"},
      {"measurement": "% Inhibition of Total Urinary Protein Levels (mg), Mean", "setting": "[1]; 5.0 mg/kg ip on day 0 and day 3", "result": 48.15, "unit": "%"}
    ]}
  ]
}
